Key:
[1] = system: Rattus norvegicus; experiment: Effect on heart rate in anesthetized Wistar rat assessed as QRS complex time at 1 mg/kg, iv after 1 min by electrocardiography; type: functional
[2] = system: Rattus norvegicus; experiment: Effect on heart rate in anesthetized Wistar rat assessed as QRS complex time at 1 mg/kg, iv after 5 mins by electrocardiography; type: functional
[3] = system: Rattus norvegicus; experiment: Effect on heart rate in anesthetized Wistar rat assessed as QRS complex time at 1 mg/kg, iv after 15 mins by electrocardiography; type: functional
[4] = system: Rattus norvegicus; experiment: Effect on heart rate in anesthetized Wistar rat assessed as Q-T intervals time at 1 mg/kg, iv after 1 min by electrocardiography; type: functional
[5] = system: Rattus norvegicus; experiment: Effect on heart rate in anesthetized Wistar rat assessed as Q-T intervals time at 1 mg/kg, iv after 5 mins by electrocardiography; type: functional
[6] = system: Rattus norvegicus; experiment: Effect on heart rate in anesthetized Wistar rat assessed as Q-T intervals time at 1 mg/kg, iv after 15 mins by electrocardiography; type: functional
[7] = system: Rattus norvegicus; experiment: Effect on heart rate in anesthetized Wistar rat assessed as heart beats per min at 1 mg/kg, iv after 1 min by electrocardiography; type: functional
[8] = system: Rattus norvegicus; experiment: Effect on heart rate in anesthetized Wistar rat assessed as heart beats per min at 1 mg/kg, iv after 5 mins by electrocardiography; type: functional
[9] = system: Rattus norvegicus; experiment: Effect on heart rate in anesthetized Wistar rat assessed as heart beats per min at 1 mg/kg, iv after 15 mins by electrocardiography; type: functional
[10] = system: Rattus norvegicus; experiment: Antiarrhythmic activity in Wistar rat assessed as inhibition of adrenaline-induced premature ventricular beats at 1 mg/kg, iv administered 15 mins before adrenaline challenge measured after 15 mins by electrocardiography; type: functional; conditions: Heart
[11] = biological target: T1, Adrenergic receptor alpha-2 (Rattus norvegicus, UniProt P22086+P19328+P22909); experiment: Displacement of [3H]Clonidine from alpha2 adrenergic receptor in Wistar rat cerebral cortex membrane by liquid scintillation counting; type: tissue-based
T1 sequence (P22086 whole entry): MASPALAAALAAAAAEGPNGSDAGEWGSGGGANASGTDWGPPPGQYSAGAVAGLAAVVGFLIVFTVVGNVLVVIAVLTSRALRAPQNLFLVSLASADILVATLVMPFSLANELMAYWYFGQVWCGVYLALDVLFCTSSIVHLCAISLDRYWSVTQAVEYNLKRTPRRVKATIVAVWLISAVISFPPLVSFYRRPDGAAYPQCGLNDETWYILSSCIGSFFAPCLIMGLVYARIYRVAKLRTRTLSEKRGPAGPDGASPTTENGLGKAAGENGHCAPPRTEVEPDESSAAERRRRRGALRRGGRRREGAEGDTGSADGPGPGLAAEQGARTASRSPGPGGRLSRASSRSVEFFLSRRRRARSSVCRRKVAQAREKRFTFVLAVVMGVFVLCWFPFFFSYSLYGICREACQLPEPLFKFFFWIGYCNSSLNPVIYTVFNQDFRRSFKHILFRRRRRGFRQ
T1 sequence (P19328 whole entry): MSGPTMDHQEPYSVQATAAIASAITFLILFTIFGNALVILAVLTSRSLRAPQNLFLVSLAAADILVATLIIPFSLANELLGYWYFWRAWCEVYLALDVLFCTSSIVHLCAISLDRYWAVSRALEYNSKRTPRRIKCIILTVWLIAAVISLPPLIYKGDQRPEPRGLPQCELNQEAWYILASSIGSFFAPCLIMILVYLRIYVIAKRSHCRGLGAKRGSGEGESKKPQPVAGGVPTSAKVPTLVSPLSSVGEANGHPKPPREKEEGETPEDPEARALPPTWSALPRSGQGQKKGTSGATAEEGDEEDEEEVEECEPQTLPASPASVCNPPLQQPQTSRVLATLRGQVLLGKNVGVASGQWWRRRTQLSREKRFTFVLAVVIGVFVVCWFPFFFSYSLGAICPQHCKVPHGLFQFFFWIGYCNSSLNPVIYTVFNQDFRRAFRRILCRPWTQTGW
T1 sequence (P22909 whole entry): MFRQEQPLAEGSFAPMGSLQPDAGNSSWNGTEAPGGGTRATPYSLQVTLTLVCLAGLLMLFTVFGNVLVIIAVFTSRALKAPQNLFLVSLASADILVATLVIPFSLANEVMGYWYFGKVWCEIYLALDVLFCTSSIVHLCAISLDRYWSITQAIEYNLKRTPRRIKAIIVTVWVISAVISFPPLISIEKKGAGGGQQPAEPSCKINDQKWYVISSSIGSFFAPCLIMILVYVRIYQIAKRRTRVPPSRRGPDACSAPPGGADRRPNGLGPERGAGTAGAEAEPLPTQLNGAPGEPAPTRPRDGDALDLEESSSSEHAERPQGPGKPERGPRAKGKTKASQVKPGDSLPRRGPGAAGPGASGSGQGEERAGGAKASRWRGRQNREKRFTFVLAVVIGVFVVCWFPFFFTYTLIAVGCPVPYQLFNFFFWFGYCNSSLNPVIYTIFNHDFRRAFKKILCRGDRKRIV

[12] = Displacement of [3H]CGP12177 from beta-1 adrenergic receptor in Wistar rat cerebral cortex membrane by liquid scintillation counting; type: tissue-based
[13] = system: Rattus norvegicus; experiment: Effect on heart rate in anesthetized Wistar rat assessed as P-Q intervals time at 1 mg/kg, iv after 1 min by electrocardiography; type: functional
[14] = system: Rattus norvegicus; experiment: Effect on heart rate in anesthetized Wistar rat assessed as P-Q intervals time at 1 mg/kg, iv after 5 mins by electrocardiography; type: functional
[15] = system: Rattus norvegicus; experiment: Effect on heart rate in anesthetized Wistar rat assessed as P-Q intervals time at 1 mg/kg, iv after 15 mins by electrocardiography; type: functional

| Compound | Ki [11] | Ki [12] | Activity [1] | Activity [2] | Activity [3] | Activity [4] | Activity [5] | Activity [6] | Activity [7] | Activity [8] | Activity [9] | ED50 [10] | Activity [13] | Activity [14] | Activity [15] |
| --- | --- | --- | --- | --- | --- | --- | --- | --- | --- | --- | --- | --- | --- | --- | --- |
| COc1ccccc1OCCNC[C@@H](O)COc1c(OC)ccc2[nH]ccc12 | 43 nM | 3400 nM | 28 ms | 28.7 ms | 28.7 ms | 106.7 ms | 106 ms | 113.3 ms | 395.5 bpm | 403.2 bpm | 387 bpm | 0.16 mg/kg | 45.3 ms | 42.7 ms | 42 ms |
| COc1ccccc1OCCNC[C@H](O)COc1c(OC)ccc2[nH]ccc12 | 60.9 nM | 887 nM | 26 ms | 28.7 ms | 28 ms | 107.3 ms | 111.3 ms | 118 ms | 388.1 bpm | 381 bpm | 367.6 bpm | 0.3 mg/kg | 48.7 ms | 46 ms | 46 ms |
| COc1ccccc1OCCNCC(O)COc1c(OC)ccc2[nH]ccc12 (racemic) | 56.9 nM | 1600 nM | 31.3 ms | 27.3 ms | 26 ms | 111.4 ms | 107.3 ms | 118 ms | 376.3 bpm | 372.9 bpm | 364.7 bpm | 0.38 mg/kg | 48.7 ms | 51.3 ms | 48 ms |

The next lines start with results.

| Ki [11] | Ki [12] | Compound | Activity [1] | Activity [2] | Activity [3] | Activity [4] | Activity [5] | Activity [6] | Activity [7] | Activity [8] | Activity [9] | ED50 [10] | Activity [13] | Activity [14] | Activity [15] |
| --- | --- | --- | --- | --- | --- | --- | --- | --- | --- | --- | --- | --- | --- | --- | --- |
| 277.2 nM | 59.3 nM | COc1ccccc1OCCNC[C@H](O)COc1ccc(OC)c2[nH]ccc12 | 25 ms | 24.5 ms | 22.5 ms | 78.8 ms | 94.8 ms | 83 ms | 292 bpm | 292.3 bpm | 275.9 bpm | 0.53 mg/kg | 58.5 ms | 56.7 ms | 53.3 ms |
| 180.8 nM | 125 nM | COc1ccccc1OCCNCC(O)COc1ccc(OC)c2[nH]ccc12 (racemic) | 24.2 ms | 23 ms | 22.7 ms | 87.1 ms | 79.2 ms | 79.2 ms | 297.3 bpm | 292.2 bpm | 300 bpm | 0.45 mg/kg | 58.8 ms | 59.4 ms | 57.3 ms |
| 108.8 nM | 531 nM | COc1ccccc1OCCNC[C@@H](O)COc1ccc(OC)c2[nH]ccc12 | 22.7 ms | 23.3 ms | 24.5 ms | 89.2 ms | 88 ms | 81.7 ms | 267.4 bpm | 259 bpm | 255.2 bpm | 0.38 mg/kg | 58.5 ms | 59.7 ms | 58 ms |

— ChEMBL document CHEMBL1154779, “Synthesis and adrenolytic activity of 1-(1H-indol-4-yloxy)-3-(2-(2-methoxy phenoxy)ethylamino)propan-2-ol analogs and its enantiomers. Part 2” (Eur J Med Chem, 2009)
